The text below walks through data of patent publication US20230167073A1 (Teijin Pharma Limited, priority 2020, published 2023).

A value given as a limit tells only on which side of the number the result lay.

The experiment deals with T1, Human TRPC6 (Homo sapiens, UniProt Q9Y210).
T1 construct: expressed in transfected cells
T1 sequence (Q9Y210 1-931): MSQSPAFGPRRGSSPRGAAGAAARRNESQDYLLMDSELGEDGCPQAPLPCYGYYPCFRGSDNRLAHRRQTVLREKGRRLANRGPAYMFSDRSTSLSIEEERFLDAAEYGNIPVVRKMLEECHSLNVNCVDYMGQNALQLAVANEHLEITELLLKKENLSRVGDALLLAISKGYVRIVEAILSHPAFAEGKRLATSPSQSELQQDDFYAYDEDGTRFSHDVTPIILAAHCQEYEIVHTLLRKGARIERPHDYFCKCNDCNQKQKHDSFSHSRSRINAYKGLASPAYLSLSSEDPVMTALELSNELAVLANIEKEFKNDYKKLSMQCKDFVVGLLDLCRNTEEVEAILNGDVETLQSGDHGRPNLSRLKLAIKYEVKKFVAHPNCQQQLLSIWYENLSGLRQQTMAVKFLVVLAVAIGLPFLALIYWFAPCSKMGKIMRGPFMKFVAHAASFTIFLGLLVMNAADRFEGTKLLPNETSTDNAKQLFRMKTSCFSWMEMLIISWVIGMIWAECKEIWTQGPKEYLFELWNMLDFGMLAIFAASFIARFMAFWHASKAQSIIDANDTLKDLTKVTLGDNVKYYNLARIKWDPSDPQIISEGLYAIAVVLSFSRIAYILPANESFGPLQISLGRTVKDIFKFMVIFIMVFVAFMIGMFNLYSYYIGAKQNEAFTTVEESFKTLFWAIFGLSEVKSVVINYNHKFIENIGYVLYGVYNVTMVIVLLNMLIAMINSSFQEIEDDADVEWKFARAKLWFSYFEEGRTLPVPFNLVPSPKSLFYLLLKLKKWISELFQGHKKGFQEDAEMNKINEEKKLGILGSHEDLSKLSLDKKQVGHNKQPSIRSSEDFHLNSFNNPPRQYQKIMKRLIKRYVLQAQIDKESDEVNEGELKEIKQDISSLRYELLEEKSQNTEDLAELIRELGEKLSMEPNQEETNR
Description: Evaluation of TRPC6 channel inhibitory activity (2), HEK293 cells with stably introduced human TRPC6, OAG stimulation, FLIPR tetra (Compound Nos. 1293 to 1405). Particulars: HEK293 cells with stably introduced human TRPC6, OAG 50 μM/0.5% DMSO, read-out: Inhibitory activity (pIC50 class) (converted). The class given is cell-based. The protocol:
Evaluation of TRPC6 Channel Inhibitory Activity (2) (Compound Nos. 1293 to 1405)
The activity of the TRPC6 inhibitor was measured by stimulating HEK293 cells, in which human TRPC6 was stably introduced, with OAG (1-Oleoyl-2-acetyl-sn-glycerol, Miliipore Sigma, 06754), using the FLIPR tetra system. The cells were proliferated in a humid environment at 37° C. 5% CO2 using a growth medium (DMEM (Dulbecco's Modified Eagle's Medium) high glucose containing 10% fetal bovine serum, 1×PSGlu (penicillin-streptomycin glutamine), 1×NEAA (Non-essential amino acid), sodium pyruvate and 200 μg/mL hyglomycin. For cell subculture, the cells were proliferated to 70-90% confluence, and gently washed twice with PBS (phosphate-buffered saline) free of calcium and magnesium after removing the medium. Then, the cells were incubated at 37° C. for 5 minutes after adding trypsin (3 mL), peeled off by tapping the flask at the base of the hand, 7 mL of growth medium was added to inactivate trypsin, and then the cells were resuspended. Usually, the cells were separated every 2-3 days to become a cell density of ⅕. The day before evaluation, the cells were seeded in a poly-D-lysine (PDL) coated 384-well plate using a multi-channel pipette or multidrop at a cell density of 1.0-1.5×10^4 cells/25 μL/well. After culturing overnight in a PDL-coated 384 Blackwell plate, a fluorescent dye buffer was added first to the cells and the cells were cultured at room temperature for 90-120 minutes. For preparing 10 mL of fluorescent dye buffer, 9 mL of assay buffer, 1 mL of 10×PBX signal enhancer, and 10 μL of calcium indicator were mixed. Cells treated with the compounds of each level 25 minutes before the stimulation with OAG of TRPC6 agonist were incubated. OAG solution was prepared by adding OAG to assay buffer (Ca ringer solution base: 10 mM HEPES (4-(2-hydroxyethyl)-1-piperazine-ethanesulfonic acid), 4 mM MgCl2, 120 mM NaCl, 5 mM KCl, pH=7.2 (25° C.)+0.1% BSA+2 mM CaCl2)) to give an OAG concentration of 0.2 mM/2% DMSO. The final concentration of OAG added to the cells is 50 μM/0.5% DMSO. A volume of 12.5 μL of OAG solution was added, and activation of TRPC6 channel was measured using the FLIPR tetra system assaying the change in intracellular calcium level as an index. The 180 seconds imaging frame was defined as the background signal, and the subtraction of the background signal from the raw data was used as the fluorescence peak signal. Each fluorescence peak signal is standardized using an OAG-induced signal and buffer-induced signal as 100% and 0%, respectively. The inhibition rate obtained by plotting the peak signal after the addition of the compounds of each level was analyzed by a four-parameter logistic regression to quantify the inhibition rate in the logarithm of the inverse of the effective concentration which gives a 50% inhibition rate (pIC50). The intensity was expressed by the above-mentioned symbols (+, ++, +++).
Regarding `Cn1nc(C2CC2)cc1Oc1cc(C#N)ccc1-c1ncc([C@@H](F)CN)cn1` [compound 1366, 4-[5-[(1R)-2-amino-1-fluoroethyl]pyrimidin-2-yl]-3-(5-cyclopropyl-2-methylpyrazol-3-yl)oxybenzonitrile], the IC50 is below 0.01 µM.

On to `Cn1nc(-c2ccccn2)cc1Oc1cc(Cl)ccc1-c1ncc(CN)cn1` [compound 1323, [2-[4-chloro-2-(2-methyl-5-pyridin-2-ylpyrazol-3-yl)oxyphenyl]pyrimidin-5-yl]methanamine], for which the IC50 was below 0.01 µM.

`Cn1nc(C2CCOCC2)cc1Oc1cc(Cl)ccc1-c1ccc([C@H](F)CN)cn1` [compound 1386, (2S)-2-[6-[4-chloro-2-[2-methyl-5-(oxan-4-yl)pyrazol-3-yl]oxyphenyl]pyridin-3-yl]-2-fluoroethanamine]: the IC50 was 0.01 to 1 µM.

Take `Cn1nc(-c2ccccn2)cc1Oc1cc(F)ccc1-c1ncc([C@H](F)CN)cn1` [compound 1335, (2S)-2-fluoro-2-[2-[4-fluoro-2-(2-methyl-5-pyridin-2-ylpyrazol-3-yl)oxyphenyl]pyrimidin-5-yl]ethanamine]: the IC50 is below 0.01 µM.

With `Cn1nc(C2CCOCC2)cc1Oc1cc(Cl)cnc1-c1ccc([C@H](F)CN)cn1` [compound 1373, (2S)-2-[6-[5-chloro-3-[2-methyl-5-(oxan-4-yl)pyrazol-3-yl]oxypyridin-2-yl]pyridin-3-yl]-2-fluoroethanamine], the IC50 is below 0.01 µM.

With `Cn1nc([C@H]2CCOC2)cc1Oc1cc(Cl)ccc1-c1ccc(CN)cn1` [compound 1345, [6-[4-chloro-2-[2-methyl-5-[(3R)-oxolan-3-yl]pyrazol-3-yl]oxyphenyl]pyridin-3-yl]methanamine], the IC50 was 0.01 to 1 µM.

In the case of `Cn1nc(-c2ccccn2)cc1Oc1cc(Cl)ccc1-c1ccc([C@H](F)CN)cn1` [compound 1338, (2S)-2-[6-[4-chloro-2-(2-methyl-5-pyridin-2-ylpyrazol-3-yl)oxyphenyl]pyridin-3-yl]-2-fluoroethanamine], the IC50 was below 0.01 µM.

Consider `Cc1cc(Oc2cc(Cl)cnc2-c2ccc([C@@H](F)CN)cn2)cc(N2CCOCC2)n1` [compound 1397, (2R)-2-[6-[5-chloro-3-(2-methyl-6-morpholin-4-ylpyridin-4 yl)oxypyridin-2-yl]pyridin-3-yl]-2-fluoroethanamine], for which the IC50 was 0.01 to 1 µM.

In the case of `Cc1cc(Oc2cc(C#N)ccc2-c2ccc([C@H](F)CN)cn2)cc(N2CCOCC2)n1` [compound 1300, 4-[5-[(1S)-2-amino-1-fluoroethyl]pyridin-2-yl]-3-(2-methyl-6-morpholin-4-ylpyridin-4-yl)oxybenzonitrile], the IC50 is below 0.01 µM.

With `Cn1nc(-c2ccccn2)cc1Oc1cc(C#N)ccc1-c1cc(Cl)c(CN)cn1` [compound 1316, 4-[5-(aminomethyl)-4-chloropyridin-2-yl]-3-(2-methyl-5-pyridin-2-ylpyrazol-3-yl)oxybenzonitrile], the IC50 was below 0.01 µM.

For the compound `Cn1nc(-c2ccccn2)cc1Oc1cc(Cl)ccc1-c1ccc([C@@H](F)CN)cn1` [compound 1339, (2R)-2-[6-[4-chloro-2-(2-methyl-5-pyridin-2-ylpyrazol-3-yl)oxyphenyl]pyridin-3-yl]-2-fluoroethanamine], the IC50 is below 0.01 µM.

As to `Cn1nc(C2CC2)cc1Oc1cc(F)ccc1-c1ncc(C(F)CN)cn1` (stereo in doubt) [compound 1381, (2S)-2-[2-[2-(5-cyclopropyl-2-methylpyrazol-3-yl)oxy-4-fluorophenyl]pyrimidin-5-yl]-2-fluoroethanamine], the IC50 was above 1 µM.

Turning to `Cn1nc(C2CCOCC2)cc1Oc1cc(Cl)ccc1-c1ncc([C@H](O)CN)cn1` [compound 1388, (1S)-2-amino-1-[2-[4-chloro-2-[2-methyl-5-(oxan-4-yl)pyrazol-3-yl]oxyphenyl]pyrimidin-5-yl]ethanol], the IC50 is 0.01 to 1 µM.

In the case of `Cn1nc(-c2ccccn2)cc1Oc1cc(Cl)cc(F)c1-c1ccc(CN)cn1` [compound 1404, [6-[4-chloro-2-fluoro-6-(2-methyl-5-pyridin-2-ylpyrazol-3-yl)oxyphenyl]pyridin-3-yl]methanamine], the IC50 is below 0.01 µM.

`Cc1cc(Oc2cc(Cl)ccc2-c2ncc([C@H](O)CN)cn2)cc(N2CCOCC2)n1` [compound 1349, (1S)-2-amino-1-[2-[4-chloro-2-(2-methyl-6-morpholin-4-ylpyridin-4-yl)oxyphenyl]pyrimidin-5-yl]ethanol]: the IC50 was 0.01 to 1 µM.

With `Cc1cc(Oc2cc(C#N)ccc2-c2cccc3cnc(N)nc23)cc(N2CCOCC2)n1` [compound 1303, 4-(2-aminoquinazolin-8-yl)-3-(2-methyl-6-morpholin-4-ylpyridin-4-yl)oxybenzonitrile], the IC50 was above 1 µM.

For `Cc1cc(Oc2cc(C#N)ccc2-c2ccc(CN)c(C)n2)cc(N2CCOCC2)n1` [compound 1304, 4-[5-(aminomethyl)-6-methylpyridin-2-yl]-3-(2-methyl-6-morpholin-4-ylpyridin-4-yl)oxybenzonitrile], the IC50 is below 0.01 µM.

In the case of `Cn1nc([C@@H]2CCOC2)cc1Oc1cc(C#N)ccc1-c1ccc(CN)cn1` [compound 1306, 4-[5-(aminomethyl)pyridin-2-yl]-3-[2-methyl-5-[(3S)-oxolan-3-yl]pyrazol-3-yl]oxybenzonitrile], the IC50 is below 0.01 µM.

As to `Cn1nc(C2CC2)cc1Oc1cc(Cl)ccc1-c1ncc([C@@H](F)CN)cn1` [compound 1348, (2R)-2-[2-[4-chloro-2-(5-cyclopropyl-2-methylpyrazol-3-yl)oxyphenyl]pyrimidin-5-yl]-2-fluoroethanamine], the IC50 is below 0.01 µM.

On to `Cn1nc(-c2ccccn2)cc1Oc1cc(C#N)ccc1-c1ccc([C@H](F)CN)cn1` [compound 1302, 4-[5-[(1S)-2-amino-1-fluoroethyl]pyridin-2-yl]-3-(2-methyl-5-pyridin-2-ylpyrazol-3-yl)oxybenzonitrile], for which the IC50 was below 0.01 µM.

On to `Cn1nc(-c2ccccn2)cc1Oc1cc(C#N)ccc1-c1ccc(CN)c(Cl)n1` [compound 1334, 4-[5-(aminomethyl)-6-chloropyridin-2-yl]-3-(2-methyl-5-pyridin-2-ylpyrazol-3-yl)oxybenzonitrile], for which the IC50 was below 0.01 µM.

As to `Cn1nc(C2CCOCC2)cc1Oc1cc(C#N)ccc1-c1ncc([C@H](F)CN)cn1` [compound 1314, 4-[5-[(1S)-2-amino-1-fluoroethyl]pyrimidin-2-yl]-3-[2-methyl-5-(oxan-4-yl)pyrazol-3-yl]oxybenzonitrile], the IC50 is 0.01 to 1 µM.

As for `Cn1nc(-c2ccccc2)nc1Oc1cc(Cl)ccc1-c1ncc(CCN)cn1` [compound 1365, 2-[2-[4-chloro-2-[(2-methyl-5-phenyl-1,2,4-triazol-3-yl)oxy]phenyl]pyrimidin-5-yl]ethanamine], the IC50 was above 1 µM.
